Marks after values point to notes of the source that are not given here.
Test system: Mtb K204
Type: cell-based, Mycobacterium tuberculosis
Conditions: KAN alone, no inhibitor

NC[C@H]1O[C@H](O[C@H]2[C@H](O)[C@@H](O[C@H]3O[C@H](CO)[C@@H](O)[C@H](N)[C@H]3O)[C@H](N)C[C@@H]2N)[C@H](O)[C@@H](O)[C@@H]1O [KAN, kanamycin]
MICKAN in K204: >10, >10^d μg/mL

Source: PMC7385556 (ACS chemical biology, 2020)
